Measured values: US11702429B2, “mTORC modulators and uses thereof” (Aeovian Pharmaceuticals, Inc., priority 2019, dated 2023)
Read-outs that look alike come from different tables or passages of the source.

Tests used:
mTORC1 = biological target: T1, mTORC1 (Homo sapiens, UniProt P42345+P62942); test: Inhibition assay for mTORC1: phosphorylation of pS6K at Thr389, AlphaLISA in PC3 cells; assay type: cell-based; conditions: for IC50: read-out: pIC50 mTORC1 (converted)
T1 construct: endogenous in cells; host or cells: PC3 cells (human prostate adenocarcinoma)

mTORC2 = biological target: T2, mTORC2 (Homo sapiens, UniProt P42345+P62942); test: Inhibition assay for mTORC2: phosphorylation of pAkt at Ser473, AlphaLISA in PC3 cells; assay type: cell-based; conditions: for IC50: read-out: pIC50 mTORC2 (converted)
T2 construct: endogenous in cells; host or cells: PC3 cells (human prostate adenocarcinoma)
T2 sequence (P62942 2-108 limits assumed, other chains not shown): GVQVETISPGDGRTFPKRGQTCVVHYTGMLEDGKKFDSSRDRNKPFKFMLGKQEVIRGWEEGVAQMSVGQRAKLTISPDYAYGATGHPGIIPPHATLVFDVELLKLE

[1] = PC3 cells, treated 24 hours, pS6K Thr389, AlphaLISA, C16 diastereomer mixtures not separated
[2] = PC3 cells, treated 24 hours, pAkt Ser473, AlphaLISA, C16 diastereomer mixtures not separated

Compound | IC50 (mTORC1) | IC50 (mTORC2) | also measured
CO[C@@H]1C[C@H](C[C@@H](C)[C@@H]2CC(=O)[C@H](C)/C=C(\C)[C@@H](O)[C@@H](OC)C(=O)[C@H](C)C[C@H](C)/C=C/C=C/C=C(\C)C(OCCO)C[C@@H]3CC[C@@H](C)[C@@](O)(O3)C(=O)C(=O)N3CCCCC3C(=O)O2)CC[C@H]1O (stereo partly drawn) [Compound 219, (1R,9S,12S,15R,16E,18R,19R,21R,23S,24E,26E,28E,32S,35R)-1,18-dihydroxy-30-(2-hydroxyethoxy)-12-[(1R)-2-[(1S,3R,4R)-4-hydroxy-3-methoxy-cyclohexyl]-1-methyl-ethyl]-19-methoxy-15,17,21,23,29,35-hexamethyl-11,36-dioxa-4-azatricyclo[30.3.1.0^4,9]hexatriaconta-16,24,26,28-tetraene-2,3,10,14,20-pentone] | 0.316 to 3.16 nM | > 10000 nM | –
COC1C[C@@H]2CC[C@@H](C)[C@@](O)(O2)C(=O)C(=O)N2CCCCC2C(=O)O[C@H]([C@H](C)C[C@@H]2CC[C@@H](OC(=O)NCCO)[C@H](OC)C2)CC(=O)[C@H](C)/C=C(\C)[C@@H](O)[C@@H](OC)C(=O)[C@H](C)C[C@H](C)/C=C/C=C/C=C/1C (some centres unmarked) [Compound 362] | < 0.316 nM | < 1000 nM | –
CO[C@@H]1C[C@H](C[C@@H](C)[C@@H]2CC(=O)[C@H](C)/C=C(\C)[C@@H](O)[C@@H](OC)C(=O)[C@H](C)C[C@H](C)/C=C/C=C/C=C(\C)C(OC[C@H](O)c3ccccc3)C[C@@H]3CC[C@@H](C)[C@@](O)(O3)C(=O)C(=O)N3CCCCC3C(=O)O2)CC[C@H]1OCCO (some centres unmarked) [Compound 88] | – | – | pIC50 mTORC1 (mTORC1; [1]): A (pIC50 for mTORC1 of >9.5 as A); pIC50 mTORC2 (mTORC2; [2]): B (5 to 6 as B)
COCCOC1CC2CCC(C)C(O)(O2)C(=O)C(=O)N2CCCCC2C(=O)OC(C(C)CC2CCC(OCCO)C(OC)C2)CC(=O)C(C)C=C(C)C(O)C(OC)C(=O)C(C)CC(C)C=CC=CC=C1C (centres unmarked) [Compound 40] | – | – | pIC50 mTORC1 (mTORC1; [1]): A (pIC50 for mTORC1 of >9.5 as A); pIC50 mTORC2 (mTORC2; [2]): B (5 to 6 as B)
COCCO[C@@H]1CC[C@@H](C[C@@H](C)[C@@H]2CC(=O)[C@H](C)/C=C(\C)[C@@H](O)[C@@H](OC)C(=O)[C@H](C)C[C@H](C)/C=C/C=C/C=C(\C)C(OC)C[C@@H]3CC[C@@H](C)[C@@](O)(O3)C(=O)C(=O)N3CCCCC3C(=O)O2)C[C@H]1OC (stereo partly drawn) [Compound 315, (1R,9S,12S,15R,16E,18R,19R,21R,23S,24E,26E,28E,30S,32S,35R)-1,18-dihydroxy-19,30-dimethoxy-12-[(1R)-2-[(1S,3R,4R)-3-methoxy-4-(2-methoxyethoxy)cyclohexyl]-1-methyl-ethyl]-15,17,21,23,29,35-hexamethyl-11,36-dioxa-4-azatricyclo[30.3.1.0^4,9]hexatriaconta-16,24,26,28-tetraene-2,3,10,14,20-pentone] | < 0.316 nM | < 1000 nM | –
CO[C@@H]1C[C@H](C[C@@H](C)[C@@H]2CC(=O)[C@H](C)/C=C(\C)[C@@H](O)[C@@H](OC)C(=O)[C@H](C)C[C@H](C)/C=C/C=C/C=C(\C)C(OC[C@H](O)c3ccccc3)C[C@@H]3CC[C@@H](C)[C@@](O)(O3)C(=O)C(=O)N3CCCCC3C(=O)O2)CC[C@H]1O (some centres unmarked) [Compound 214] | < 0.316 nM | 1000 to 10000 nM | –
COCCCO[C@@H]1CC[C@@H](C[C@@H](C)[C@@H]2CC(=O)[C@H](C)/C=C(\C)[C@@H](O)[C@@H](OC)C(=O)[C@H](C)C[C@H](C)/C=C/C=C/C=C(\C)C(OC)C[C@@H]3CC[C@@H](C)[C@@](O)(O3)C(=O)C(=O)N3CCCCC3C(=O)O2)C[C@H]1OC (stereo partly drawn) [Compound 308, (1R,9S,12S,15R,16E,18R,19R,21R,23S,24E,26E,28E,30S,32S,35R)-1,18-dihydroxy-19,30-dimethoxy-12-[(1R)-2-[(1S,3R,4R)-3-methoxy-4-(3-methoxypropoxy)cyclohexyl]-1-methyl-ethyl]-15,17,21,23,29,35-hexamethyl-11,36-dioxa-4-azatricyclo[30.3.1.0^4,9]hexatriaconta-16,24,26,28-tetraene-2,3,10,14,20-pentone] | < 0.316 nM | < 1000 nM | –
COC1C[C@@H]2CC[C@@H](C)[C@@](O)(O2)C(=O)C(=O)N2CCCCC2C(=O)O[C@H]([C@H](C)C[C@@H]2CC[C@@H](OP(C)(C)=O)[C@H](OC)C2)CC(=O)[C@H](C)/C=C(\C)[C@@H](O)[C@@H](OC)C(=O)[C@H](C)C[C@H](C)/C=C/C=C/C=C/1C (some centres unmarked) [Compound 342] | < 0.316 nM | < 1000 nM | –
COC1C[C@@H]2CC[C@@H](C)[C@@](O)(O2)C(=O)C(=O)N2CCCCC2C(=O)O[C@H]([C@H](C)C[C@@H]2CC[C@@H](OC(=O)N(C)CCN(C)C)[C@H](OC)C2)CC(=O)[C@H](C)/C=C(\C)[C@@H](O)[C@@H](OC)C(=O)[C@H](C)C[C@H](C)/C=C/C=C/C=C/1C (some centres unmarked) [Compound 359] | < 0.316 nM | < 1000 nM | –
CO[C@@H]1C[C@H](C[C@@H](C)[C@@H]2CC(=O)[C@H](C)/C=C(\C)[C@@H](O)[C@@H](OC)C(=O)[C@H](C)C[C@H](C)/C=C/C=C/C=C(\C)C(OCc3ccccc3)C[C@@H]3CC[C@@H](C)[C@@](O)(O3)C(=O)C(=O)N3CCCCC3C(=O)O2)CC[C@H]1O (some centres unmarked) [Compound 205] | < 0.316 nM | < 1000 nM | –
COC1C[C@@H]2CC[C@@H](C)[C@@](O)(O2)C(=O)C(=O)N2CCCCC2C(=O)O[C@H]([C@H](C)C[C@@H]2CC[C@@H](OC(=O)NCCc3ccccc3)[C@H](OC)C2)CC(=O)[C@H](C)/C=C(\C)[C@@H](O)[C@@H](OC)C(=O)[C@H](C)C[C@H](C)/C=C/C=C/C=C/1C (some centres unmarked) [Compound 324] | < 0.316 nM | < 1000 nM | –
COC1CC2CCC(C)C(O)(O2)C(=O)C(=O)N2CCCCC2C(=O)OC(C(C)CC2CCC(OCCCN3CCOC(C)C3)C(OC)C2)CC(=O)C(C)C=C(C)C(O)C(OC)C(=O)C(C)CC(C)C=CC=CC=C1C (centres unmarked) [Compound 310] | < 0.316 nM | < 1000 nM | –
COC1C[C@@H]2CC[C@@H](C)[C@@](O)(O2)C(=O)C(=O)N2CCCCC2C(=O)O[C@H]([C@H](C)C[C@@H]2CC[C@@H](OC(=O)NCCN3CCCCC3)[C@H](OC)C2)CC(=O)[C@H](C)/C=C(\C)[C@@H](O)[C@@H](OC)C(=O)[C@H](C)C[C@H](C)/C=C/C=C/C=C/1C (some centres unmarked) [Compound 365] | < 0.316 nM | < 1000 nM | –
CO[C@@H]1C[C@H](C[C@@H](C)[C@@H]2CC(=O)[C@H](C)/C=C(\C)[C@@H](O)[C@@H](OC)C(=O)[C@H](C)C[C@H](C)/C=C/C=C/C=C(\C)C(OC(C)C)C[C@@H]3CC[C@@H](C)[C@@](O)(O3)C(=O)C(=O)N3CCCCC3C(=O)O2)CC[C@H]1O (stereo partly drawn) [Compound 208, (1R,9S,12S,15R,16E,18R,19R,21R,23S,24E,26E,28E,32S,35R)-1,18-dihydroxy-12-[(1R)-2-[(1S,3R,4R)-4-hydroxy-3-methoxy-cyclohexyl]-1-methyl-ethyl]-30-isopropoxy-19-methoxy-15,17,21,23,29,35-hexamethyl-11,36-dioxa-4-azatricyclo[30.3.1.0^4,9]hexatriaconta-16,24,26,28-tetraene-2,3,10,14,20-pentone] | 0.316 to 3.16 nM | 1000 to 10000 nM | –
COC1CC(CC(C)C2CC(=O)C(C)C=C(C)C(O)C(OC)C(=O)C(C)CC(C)C=CC=CC=C(C)C(OCCO)CC3CCC(C)C(O)(O3)C(=O)C(=O)N3CCCCC3C(=O)O2)CCC1OCCCN1CCOCC1C (mixture of isomers) [Compound 5] | – | – | IC50 (mTORC1; [1]): < 0.316 nM; IC50 (mTORC2; [2]): > 10000 nM
COC1C[C@@H]2CC[C@@H](C)[C@@](O)(O2)C(=O)C(=O)N2CCCCC2C(=O)O[C@H]([C@H](C)C[C@@H]2CC[C@@H](OC(=O)NCc3ccccn3)[C@H](OC)C2)CC(=O)[C@H](C)/C=C(\C)[C@@H](O)[C@@H](OC)C(=O)[C@H](C)C[C@H](C)/C=C/C=C/C=C/1C (some centres unmarked) [Compound 333] | < 0.316 nM | < 1000 nM | –
CO[C@@H]1C[C@H](C[C@@H](C)[C@@H]2CC(=O)[C@H](C)/C=C(\C)[C@@H](O)[C@@H](OC)C(=O)[C@H](C)C[C@H](C)/C=C/C=C/C=C(\C)C(O[C@H](CO)c3ccccc3)C[C@@H]3CC[C@@H](C)[C@@](O)(O3)C(=O)C(=O)N3CCCCC3C(=O)O2)CC[C@H]1O (some centres unmarked) [Compound 204] | < 0.316 nM | < 1000 nM | –
COC1C[C@@H]2CC[C@@H](C)[C@@](O)(O2)C(=O)C(=O)N2CCCCC2C(=O)O[C@H]([C@H](C)C[C@@H]2CC[C@@H](OC(=O)NCCOCCOCCOCCOCCO)[C@H](OC)C2)CC(=O)[C@H](C)/C=C(\C)[C@@H](O)[C@@H](OC)C(=O)[C@H](C)C[C@H](C)/C=C/C=C/C=C/1C (some centres unmarked) [Compound 347] | < 0.316 nM | < 1000 nM | –
COC1C[C@@H]2CC[C@@H](C)[C@@](O)(O2)C(=O)C(=O)N2CCCCC2C(=O)O[C@H]([C@H](C)C[C@@H]2CC[C@@H](OCCCOCCO)[C@H](OC)C2)CC(=O)[C@H](C)/C=C(\C)[C@@H](O)[C@@H](OC)C(=O)[C@H](C)C[C@H](C)/C=C/C=C/C=C/1C (some centres unmarked) [Compound 319] | < 0.316 nM | < 1000 nM | –
CO[C@@H]1C[C@H](C[C@@H](C)[C@@H]2CC(=O)[C@H](C)/C=C(\C)[C@@H](O)[C@@H](OC)C(=O)[C@H](C)C[C@H](C)/C=C/C=C/C=C(\C)C(c3cc(C)cs3)C[C@@H]3CC[C@@H](C)[C@@](O)(O3)C(=O)C(=O)N3CCCCC3C(=O)O2)CC[C@H]1O (some centres unmarked) [Compound 203] | > 3.16 nM | 1000 to 10000 nM | –
COCCOCCOC1C[C@@H]2CC[C@@H](C)[C@@](O)(O2)C(=O)C(=O)N2CCCCC2C(=O)O[C@H]([C@H](C)C[C@@H]2CC[C@@H](O)[C@H](OC)C2)CC(=O)[C@H](C)/C=C(\C)[C@@H](O)[C@@H](OC)C(=O)[C@H](C)C[C@H](C)/C=C/C=C/C=C/1C (some centres unmarked) [Compound 227] | < 0.316 nM | > 10000 nM | –
COC1C[C@@H]2CC[C@@H](C)[C@@](O)(O2)C(=O)C(=O)N2CCCCC2C(=O)O[C@H]([C@H](C)C[C@@H]2CC[C@@H](OCCCCN3CCOCC3)[C@H](OC)C2)CC(=O)[C@H](C)/C=C(\C)[C@@H](O)[C@@H](OC)C(=O)[C@H](C)C[C@H](C)/C=C/C=C/C=C/1C (some centres unmarked) [Compound 300] | < 0.316 nM | < 1000 nM | –
